Values quoted from earlier work as cited in patent publication EP0557244B1, “Dosage forms having prolonged active-ingredient release” (Siegfried Pharma AG, priority 1992, dated 1993).
Read-outs that look alike come from different tables or passages of the source.

[1] = 20 mg of crystalline nifedipine, Pabst et al.
[2] = 20 mg of dissolved nifedipine in capsules, Pabst et al.

SMILES: COC(=O)C1=C(C)NC(C)=C(C(=O)OC)C1c1ccccc1[N+](=O)[O-] [nifedipine]
- plasma level peaks [1]: about 40 ng/ml
- time of plasma level peaks [1]: about 1.5 hours
- plasma level peaks [2]: about 200 ng/ml
- time of plasma level peaks [2]: about 30 minutes
- plasma level peaks (tablet containing 40 mg of nifedipine (EP 220 760), initially): more than 60 ng/ml
